# Reference: the supplement of paper PMC4862054
# Tested on: HDQ-P1
# Experiment: normalised response (% of control), CellTox Green; higher = less cell death (100 = DMSO, 0 = benzethonium chloride kill control)
# Details: incubation time: 72 h
# Method in brief: (§1)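 A 20 µl suspension of breast cancer cells was seeded into each well of 384-well plates containing compound at 5 concentrations in 10-fold steps over a compound-specific 10,000-fold range. After 72 h incubation, CellTox Green fluorescence (485/520 nm) was read first, and CellTiter-Glo luminescence was read after 10 min at room temperature. Each plate was normalised against 0.1 % DMSO (100) and a positive kill control (0), and each value is the normalised signal at one concentration.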
row,SMILES,normalised response
1,c1ccc([C@H]2CN3CCSC3=N2)cc1 [Levamisole] (10000 nM),72.4%

# Tested on: MFM-223
# Experiment: as above
# Details: incubation time: 72 h
# Method in brief: as §1
row,SMILES,normalised response
1,CNNCc1ccc(C(=O)NC(C)C)cc1 [Procarbazine] (10000 nM),94.5%
2,Nc1nc(OCc2cc(Br)cs2)c2[nH]cnc2n1 [Lomeguatrib] (10000 nM),98.5%
3,Cn1c(=O)n(-c2ccc(C(C)(C)C#N)cc2)c2c3cc(-c4cnc5ccccc5c4)ccc3ncc21 [Dactolisib] (10 nM),104%
4,CN1CCN(CCOc2cc(OC3CCOCC3)c3c(Nc4c(Cl)ccc5c4OCO5)ncnc3c2)CC1 [Saracatinib] (10000 nM),90.4%
5,c1ccc([C@H]2CN3CCSC3=N2)cc1 [Levamisole] (10000 nM),95.2%

# Tested on: BT-474
# Experiment: as above
# Details: incubation time: 72 h
# Method in brief: as §1
row,SMILES,normalised response
1,CNNCc1ccc(C(=O)NC(C)C)cc1 [Procarbazine] (10000 nM),103%
2,Nc1nc(OCc2cc(Br)cs2)c2[nH]cnc2n1 [Lomeguatrib] (10000 nM),95.9%
3,Cn1c(=O)n(-c2ccc(C(C)(C)C#N)cc2)c2c3cc(-c4cnc5ccccc5c4)ccc3ncc21 [Dactolisib] (10 nM),101%
4,CN1CCN(CCOc2cc(OC3CCOCC3)c3c(Nc4c(Cl)ccc5c4OCO5)ncnc3c2)CC1 [Saracatinib] (10000 nM),42%
5,c1ccc([C@H]2CN3CCSC3=N2)cc1 [Levamisole] (10000 nM),101%

# Tested on: Hs578T
# Experiment: as above
# Details: incubation time: 72 h
# Method in brief: as §1
row,SMILES,normalised response
1,CNNCc1ccc(C(=O)NC(C)C)cc1 [Procarbazine] (10000 nM),108%
2,Nc1nc(OCc2cc(Br)cs2)c2[nH]cnc2n1 [Lomeguatrib] (10000 nM),108%
3,Cn1c(=O)n(-c2ccc(C(C)(C)C#N)cc2)c2c3cc(-c4cnc5ccccc5c4)ccc3ncc21 [Dactolisib] (10 nM),116%
4,CN1CCN(CCOc2cc(OC3CCOCC3)c3c(Nc4c(Cl)ccc5c4OCO5)ncnc3c2)CC1 [Saracatinib] (10000 nM),59.7%
5,c1ccc([C@H]2CN3CCSC3=N2)cc1 [Levamisole] (10000 nM),72%

# Tested on: CAL-120
# Experiment: as above
# Details: incubation time: 72 h
# Method in brief: as §1
row,SMILES,normalised response
1,CNNCc1ccc(C(=O)NC(C)C)cc1 [Procarbazine] (10000 nM),111%
2,Nc1nc(OCc2cc(Br)cs2)c2[nH]cnc2n1 [Lomeguatrib] (10000 nM),104%
3,Cn1c(=O)n(-c2ccc(C(C)(C)C#N)cc2)c2c3cc(-c4cnc5ccccc5c4)ccc3ncc21 [Dactolisib] (10 nM),98.7%
4,CN1CCN(CCOc2cc(OC3CCOCC3)c3c(Nc4c(Cl)ccc5c4OCO5)ncnc3c2)CC1 [Saracatinib] (10000 nM),94.5%
5,c1ccc([C@H]2CN3CCSC3=N2)cc1 [Levamisole] (10000 nM),98.4%

# Tested on: CAL-51
# Experiment: as above
# Details: incubation time: 72 h
# Method in brief: as §1
row,SMILES,normalised response
1,CNNCc1ccc(C(=O)NC(C)C)cc1 [Procarbazine] (10000 nM),110%
2,Nc1nc(OCc2cc(Br)cs2)c2[nH]cnc2n1 [Lomeguatrib] (10000 nM),89.2%
3,Cn1c(=O)n(-c2ccc(C(C)(C)C#N)cc2)c2c3cc(-c4cnc5ccccc5c4)ccc3ncc21 [Dactolisib] (10 nM),113%
4,CN1CCN(CCOc2cc(OC3CCOCC3)c3c(Nc4c(Cl)ccc5c4OCO5)ncnc3c2)CC1 [Saracatinib] (10000 nM),58%
5,c1ccc([C@H]2CN3CCSC3=N2)cc1 [Levamisole] (10000 nM),113%

# Tested on: MDA-MB-468
# Experiment: as above
# Details: incubation time: 72 h
# Method in brief: as §1
row,SMILES,normalised response
1,Nc1nc(OCc2cc(Br)cs2)c2[nH]cnc2n1 [Lomeguatrib] (10000 nM),161%
2,Cn1c(=O)n(-c2ccc(C(C)(C)C#N)cc2)c2c3cc(-c4cnc5ccccc5c4)ccc3ncc21 [Dactolisib] (10 nM),130%
3,CN1CCN(CCOc2cc(OC3CCOCC3)c3c(Nc4c(Cl)ccc5c4OCO5)ncnc3c2)CC1 [Saracatinib] (10000 nM),125%
4,c1ccc([C@H]2CN3CCSC3=N2)cc1 [Levamisole] (10000 nM),110%

# Tested on: CAL-85-1
# Experiment: as above
# Details: incubation time: 72 h
# Method in brief: as §1
row,SMILES,normalised response
1,CNNCc1ccc(C(=O)NC(C)C)cc1 [Procarbazine] (10000 nM),72%
2,Nc1nc(OCc2cc(Br)cs2)c2[nH]cnc2n1 [Lomeguatrib] (10000 nM),114%
3,Cn1c(=O)n(-c2ccc(C(C)(C)C#N)cc2)c2c3cc(-c4cnc5ccccc5c4)ccc3ncc21 [Dactolisib] (10 nM),101%
4,CN1CCN(CCOc2cc(OC3CCOCC3)c3c(Nc4c(Cl)ccc5c4OCO5)ncnc3c2)CC1 [Saracatinib] (10000 nM),29.9%
5,c1ccc([C@H]2CN3CCSC3=N2)cc1 [Levamisole] (10000 nM),79.1%

# Tested on: DU-4475
# Experiment: as above
# Details: incubation time: 72 h
# Method in brief: as §1
row,SMILES,normalised response
1,CNNCc1ccc(C(=O)NC(C)C)cc1 [Procarbazine] (10000 nM),96.2%
2,Nc1nc(OCc2cc(Br)cs2)c2[nH]cnc2n1 [Lomeguatrib] (10000 nM),97.9%
3,Cn1c(=O)n(-c2ccc(C(C)(C)C#N)cc2)c2c3cc(-c4cnc5ccccc5c4)ccc3ncc21 [Dactolisib] (10 nM),104%
4,CN1CCN(CCOc2cc(OC3CCOCC3)c3c(Nc4c(Cl)ccc5c4OCO5)ncnc3c2)CC1 [Saracatinib] (10000 nM),95.5%
5,c1ccc([C@H]2CN3CCSC3=N2)cc1 [Levamisole] (10000 nM),104%

# Tested on: BT-549
# Experiment: as above
# Details: incubation time: 72 h
# Method in brief: as §1
row,SMILES,normalised response
1,CNNCc1ccc(C(=O)NC(C)C)cc1 [Procarbazine] (10000 nM),94%
2,Nc1nc(OCc2cc(Br)cs2)c2[nH]cnc2n1 [Lomeguatrib] (10000 nM),96.6%
3,Cn1c(=O)n(-c2ccc(C(C)(C)C#N)cc2)c2c3cc(-c4cnc5ccccc5c4)ccc3ncc21 [Dactolisib] (10 nM),110%
4,CN1CCN(CCOc2cc(OC3CCOCC3)c3c(Nc4c(Cl)ccc5c4OCO5)ncnc3c2)CC1 [Saracatinib] (10000 nM),86.2%
5,c1ccc([C@H]2CN3CCSC3=N2)cc1 [Levamisole] (10000 nM),95.8%
